Source: patent US10800792B2, “Inhibitors of Bruton's tyrosine kinase and method of their use” (JANSSEN PHARMACEUTICA NV, priority 2015, dated 2020)

Each compound was assayed against unphosphorylated-BTK kinase domain (UP-BTK), GST-tagged human BTK (389-659aa) (Homo sapiens (Human), UniProt Q06187) (assay: BTK kinase Lanthascreen binding assay). Details: Lanthascreen tracer competition, 60 minutes incubation; pIC50 = negative log of the IC50 in molar.
unphosphorylated-BTK kinase domain (UP-BTK), GST-tagged human BTK (389-659aa), sequence (Q06187 389-659): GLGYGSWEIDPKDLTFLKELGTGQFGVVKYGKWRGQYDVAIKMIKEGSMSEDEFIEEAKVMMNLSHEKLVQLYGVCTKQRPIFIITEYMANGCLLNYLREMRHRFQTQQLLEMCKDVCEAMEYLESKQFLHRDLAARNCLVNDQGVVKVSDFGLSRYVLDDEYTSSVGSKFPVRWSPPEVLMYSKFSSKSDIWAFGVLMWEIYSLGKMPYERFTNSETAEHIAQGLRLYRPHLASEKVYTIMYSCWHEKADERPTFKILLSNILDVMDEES
How it was run: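 Measures how well compounds compete with a fluorescence-labelled tracer for binding to BTK in its unphosphorylated state. IC50 values were fitted and expressed as pIC50 (negative logarithm of the molar IC50).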
For C=CC(=O)N1CCC[C@@H](NC(=O)c2sc3nccc4c3c2NC(=O)N4c2cc(OC(C)C)ccc2C)C1 [Example 640, (R)—N-(1-Acryloylpiperidin-3-yl)-5-(5-isopropoxy-2-methylphenyl)-4-oxo-4,5-dihydro-3H-1-thia-3,5,8-triazaacenaphthylene-2-carboxamide], the “BTK_I_binding pIC50” value was 5.6.
With CC(=O)N1CCC[C@@H](NC(=O)c2sc3nccc4c3c2NC(=O)N4c2ccc(Oc3cccnn3)cc2C)C1 [Example 810, (R)—N-(1-Acetylpiperidin-3-yl)-5-(2-methyl-4-(pyridazin-3-yloxy)phenyl)-4-oxo-4,5-dihydro-3H-1-thia-3,5,8-triazaacenaphthylene-2-carboxamide] the “BTK_I_binding pIC50” value was <6.
With C=CC(=O)N1CCC[C@@H](NC(=O)c2sc3nccc4c3c2NC(=O)N4c2ccc(OC3CCOCC3)nc2C)C1 [Example 770, (R)—N-(1-Acryloylpiperidin-3-yl)-5-(2-methyl-6-((tetrahydro-2H-pyran-4-yl)oxy)pyridin-3-yl)-4-oxo-4,5-dihydro-3H-1-thia-3,5,8-triazaacenaphthylene-2-carboxamide] the “BTK_I_binding pIC50” value was <6.
In the case of Cc1cc(Oc2ccccc2)ccc1N1C(=O)Nc2c(C(=O)N[C@@H]3CCCN(C(=O)C(C#N)=CC4(C)COC4)C3)sc3nccc1c23 (single isomer, unassigned) [Example 782, (R,EZ)—N-(1-(2-Cyano-3-(3-methyloxetan-3-yl)acryloyl)piperidin-3-yl)-5-(*S)-(2-methyl-4-phenoxyphenyl)-4-oxo-4,5-dihydro-3H-1-thia-3,5,8-triazaacenaphthylene-2-carboxamide], the “BTK_I_binding pIC50” value is reported as 7.7.
In the case of O=C(N[C@@H]1CCCNC1)c1sc2nccc3c2c1NC(=O)N3c1cncc(-c2ccccc2)c1 [Example 618, (R)-4-Oxo-5-(5-phenylpyridin-3-yl)-N-(piperidin-3-yl)-4,5-dihydro-3H-1-thia-3,5,8-triazaacenaphthylene-2-carboxamide], the “BTK_I_binding pIC50” value is reported as 6.0.
In the case of C=CC(=O)N1CCC[C@@H](NC(=O)c2sc3nccc4c3c2NC(=O)N4c2ccc(Oc3cccc(C)n3)cc2)C1 [Example 775, (R)—N-(1-Acryloylpiperidin-3-yl)-5-(4-((6-methylpyridin-2-yl)oxy)phenyl)-4-oxo-4,5-dihydro-3H-1-thia-3,5,8-triazaacenaphthylene-2-carboxamide], the “BTK_I_binding pIC50” value is reported as 7.5.
For Cc1nc(Oc2ccccc2)ccc1N1C(=O)Nc2c(C(=O)N[C@@H]3CCNC3)sc3nccc1c23 (single isomer, unassigned) [Example 728, (R)-5-(*R)-(2-Methyl-6-phenoxypyridin-3-yl)-4-oxo-N-(pyrrolidin-3-yl)-4,5-dihydro-3H-1-thia-3,5,8-triazaacenaphthylene-2-carboxamide], the “BTK_I_binding pIC50” value was <6.
C=CC(=O)N1CCC[C@@H](NC(=O)c2sc3nccc4c3c2NC(=O)N4c2ccc(OC(C)C)nc2C)C1 (single isomer, unassigned) [Example 757, (R)—N-(1-Acryloylpiperidin-3-yl)-5-(*R)-(6-isopropoxy-2-methylpyridin-3-yl)-4-oxo-4,5-dihydro-3H-1-thia-3,5,8-triazaacenaphthylene-2-carboxamide] was tested, and the “BTK_I_binding pIC50” value was <6.
With Cc1cc(Oc2ccccc2)ncc1N1C(=O)Nc2c(C(=O)N[C@@H]3CCNC3)sc3nccc1c23 (single isomer, unassigned) [Example 702, (R)-5-(*S)-(4-Methyl-6-phenoxypyridin-3-yl)-4-oxo-N-(pyrrolidin-3-yl)-4,5-dihydro-3H-1-thia-3,5,8-triazaacenaphthylene-2-carboxamide] the “BTK_I_binding pIC50” value was 6.8.
With C=CC(=O)N1CC[C@@H](NC(=O)c2sc3nccc4c3c2NC(=O)N4c2cnc(Oc3ccccc3)nc2C)C1 (single isomer, unassigned) [Example 664, (R)—N-(1-Acryloylpyrrolidin-3-yl)-5-(*S)-(4-methyl-2-phenoxypyrimidin-5-yl)-4-oxo-4,5-dihydro-3H-1-thia-3,5,8-triazaacenaphthylene-2-carboxamide] the “BTK_I_binding pIC50” value was 7.6.

Same assay, conditions: pIC50 = negative log of the IC50 in molar; 60 minutes incubation, 50 nM Tracer 236
In the case of C=CC(=O)N1CC(F)C[C@@H](NC(=O)c2sc3nccc4c3c2NC(=O)N4c2ccc(Oc3ccccc3)cc2C)C1 (stereo in doubt) [Example 3, N-((3R,5S)-1-Acryloyl-5-fluoropiperidin-3-yl)-5-(2-methyl-4-phenoxyphenyl)-4-oxo-4,5-dihydro-3H-1-thia-3,5,8-triazaacenaphthylene-2-carboxamide], the “BTK_I_binding pIC50” value is reported as 7.9.
With Cc1cc(Oc2ccccc2)ccc1N1C(=O)Nc2c(C(=O)N[C@@H]3CCCN(C(=O)/C=C/C(C)(C)C)C3)sc3nccc1c23 [Example 274, (R,E)-N-(1-(4,4-Dimethylpent-2-enoyl)piperidin-3-yl)-5-(2-methyl-4-phenoxyphenyl)-4-oxo-4,5-dihydro-3H-1-thia-3,5,8-triazaacenaphthylene-2-carboxamide] the “BTK_I_binding pIC50” value was 6.3.
In the case of Cc1cc(Oc2ccccc2)ccc1N1C(=O)Nc2c(C(=O)N[C@@H]3CCCN(C(=O)[C@H]4CCOC4)C3)sc3nccc1c23 [Example 207, 5-(2-Methyl-4-phenoxyphenyl)-4-oxo-N—((R)-1-((S)-tetrahydrofuran-3-carbonyl)piperidin-3-yl)-4,5-dihydro-3H-1-thia-3,5,8-triazaacenaphthylene-2-carboxamide], the “BTK_I_binding pIC50” value is reported as 7.1.
Cc1cc(Oc2ccccc2)ccc1N1C(=O)Nc2c(C(=O)NC3COCCN(C)C3)sc3nccc1c23 (stereo not shown) [Example 129, N-(4-Methyl-1,4-oxazepan-6-yl)-5-(2-methyl-4-phenoxyphenyl)-4-oxo-4,5-dihydro-3H-1-thia-3,5,8-triazaacenaphthylene-2-carboxamide] was tested, and the “BTK_I_binding pIC50” value was 6.9.
For Cc1cc(Oc2ccccc2)ccc1N1C(=O)Nc2c(C(=O)N[C@@H]3CCCN(C(=O)CCN(C)C)C3)sc3nccc1c23 [Example 130, (R)—N-(1-(3-(Dimethylamino)propanoyl)piperidin-3-yl)-5-(2-methyl-4-phenoxyphenyl)-4-oxo-4,5-dihydro-3H-1-thia-3,5,8-triazaacenaphthylene-2-carboxamide], the “BTK_I_binding pIC50” value was 7.1.

Same assay, conditions: unphosphorylated-BTK kinase domain, 50 nM Tracer 236, 60 minutes; pIC50 = negative log of the IC50 in molar
Cc1cc(N2C(=O)Nc3c(C(=O)N[C@@H]4CCCNC4)sc4nccc2c34)ccc1Oc1ccccc1 [Example 583, (R)-5-(3-Methyl-4-phenoxyphenyl)-4-oxo-N-(piperidin-3-yl)-4,5-dihydro-3H-1-thia-3,5,8-triazaacenaphthylene-2-carboxamide] was tested, and the “BTK_I_binding pIC50” value was 6.7.
In the case of Cc1ccc(N2C(=O)Nc3c(C(=O)N[C@@H]4CCCNC4)sc4nccc2c34)cc1C(F)(F)F [Example 461, (R)-5-(4-Methyl-3-(trifluoromethyl)phenyl)-4-oxo-N-(piperidin-3-yl)-4,5-dihydro-3H-1-thia-3,5,8-triazaacenaphthylene-2-carboxamide], the “BTK_I_binding pIC50” value is reported as 5.0.
For CNCC(=O)N1CCC[C@@H](NC(=O)c2sc3nccc4c3c2NC(=O)N4c2cccc(-c3ccccc3)c2)C1 [Example 551, (R)-5-([1,1′-Biphenyl]-3-yl)-N-(1-(2-(methylamino)acetyl)piperidin-3-yl)-4-oxo-4,5-dihydro-3H-1-thia-3,5,8-triazaacenaphthylene-2-carboxamide], the “BTK_I_binding pIC50” value was 6.8.
With C=CC(=O)N1CCC[C@@H](NC(=O)c2sc3nccc4c3c2NC(=O)N4c2ccc(OC3CCC3)cc2C)C1 [Example 456, (R)—N-(1-Acryloylpiperidin-3-yl)-5-(4-cyclobutoxy-2-methylphenyl)-4-oxo-4,5-dihydro-3H-1-thia-3,5,8-triazaacenaphthylene-2-carboxamide] the “BTK_I_binding pIC50” value was 7.7.
In the case of C=CC(=O)N1CCC[C@@H](NC(=O)c2sc3nccc4c3c2NC(=O)N4c2cccc(-c3ccccc3C(F)(F)F)c2)C1 [Example 563, (R)—N-(1-Acryloylpiperidin-3-yl)-4-oxo-5-(2′-(trifluoromethyl)-[1,1′-biphenyl]-3-yl)-4,5-dihydro-3H-1-thia-3,5,8-triazaacenaphthylene-2-carboxamide], the “BTK_I_binding pIC50” value is reported as 7.0.
Cc1cc(Oc2ccccn2)ccc1N1C(=O)Nc2c(C(=O)N[C@@H]3CCCN(C)C3)sc3nccc1c23 [Example 306, (R)-5-(2-Methyl-4-(pyridin-2-yloxy)phenyl)-N-(1-methylpiperidin-3-yl)-4-oxo-4,5-dihydro-3H-1-thia-3,5,8-triazaacenaphthylene-2-carboxamide] was tested, and the “BTK_I_binding pIC50” value was 6.0.
In the case of C=CC(=O)N1C[C@H](F)C[C@@H](NC(=O)c2sc3nccc4c3c2NC(=O)N4c2ccc(Oc3ccccc3)cc2C)C1 (relative stereo) [Example 499, N-((3R,5R)-1-Acryloyl-5-fluoropiperidin-3-yl)-5-(*S)-(2-methyl-4-phenoxyphenyl)-4-oxo-4,5-dihydro-3H-1-thia-3,5,8-triazaacenaphthylene-2-carboxamide], the “BTK_I_binding pIC50” value is reported as 7.9.
For C=CS(=O)(=O)N1CCC[C@@H](NC(=O)c2sc3nccc4c3c2NC(=O)N4c2ccc(Oc3ccccc3)cc2C)C1 [Example 372, (R)-5-(2-Methyl-4-phenoxyphenyl)-4-oxo-N-(1-(vinylsulfonyl)piperidin-3-yl)-4,5-dihydro-3H-1-thia-3,5,8-triazaacenaphthylene-2-carboxamide], the “BTK_I_binding pIC50” value was 7.6.
In the case of Cc1cc(Oc2ccccc2)ccc1N1C(=O)Nc2c(C(=O)N[C@@H]3CCN(C(=O)/C=C/CN(C)C)C3)sc3nccc1c23 (single isomer, unassigned) [Example 502, (R,E)-N-(1-(4-(Dimethylamino)but-2-enoyl)pyrrolidin-3-yl)-5-(*S)-(2-methyl-4-phenoxyphenyl)-4-oxo-4,5-dihydro-3H-1-thia-3,5,8-triazaacenaphthylene-2-carboxamide], the “BTK_I_binding pIC50” value is reported as 7.9.
C=CC(=O)N1CCC[C@@H](NC(=O)c2sc3nccc4c3c2NC(=O)N4c2cccc(OC(C)C)c2)C1 [Example 565, (R)—N-(1-Acryloylpiperidin-3-yl)-5-(3-isopropoxyphenyl)-4-oxo-4,5-dihydro-3H-1-thia-3,5,8-triazaacenaphthylene-2-carboxamide] was tested, and the “BTK_I_binding pIC50” value was 7.0.
